Test results reported in ChEMBL document CHEMBL4261597, “1,2,3-Triazole fused with pyridine/pyrimidine as new template for antimicrobial agents: Regioselective synthesis and identification of potent N-heteroarenes” (2018).
Active and inactive are the calls of the source. The calls are words filed in the database; no cut-off is given here.

Assays:
Fusarium [1] = assay: Antifungal activity against Fusarium recini assessed as zone of inhibition at 10 ug after 48 hrs; assay type: functional; details: read-out: DIZ
Bacillus subtilis [2] = assay: Antibacterial activity against Bacillus subtilis assessed as zone of inhibition at 10 ug after 24 hrs; assay type: functional; details: for zone of inhibition at 10 µg/disc: read-out: DIZ
Fusarium oxysporum [3] = assay: Antifungal activity against Fusarium oxysporum lycopersici assessed as zone of inhibition at 10 ug after 48 hrs; assay type: functional, Fusarium oxysporum f. sp. lycopersici; details: read-out: DIZ
Escherichia coli [4] = assay: Antibacterial activity against Escherichia coli assessed as zone of inhibition at 10 ug after 24 hrs; assay type: functional; details: for zone of inhibition at 10 µg/disc: read-out: DIZ
Fusarium [5] = assay: Antifungal activity against Fusarium recini after 48 hrs; assay type: functional
Fusarium oxysporum [6] = assay: Antifungal activity against Fusarium oxysporum lycopersici after 48 hrs; assay type: functional, Fusarium oxysporum f. sp. lycopersici
Escherichia coli [7] = assay: Antibacterial activity against Escherichia coli after 24 hrs; assay type: functional
Bacillus subtilis [8] = assay: Antibacterial activity against Bacillus subtilis after 24 hrs; assay type: functional
Escherichia coli [9] = assay: Antibacterial activity against Escherichia coli at 25 to 100 ug after 24 hrs; assay type: functional, organism-based
Bacillus subtilis [10] = assay: Antibacterial activity against Bacillus subtilis at 25 to 100 ug after 24 hrs; assay type: functional, organism-based

SMILES	zone of inhibition at 10 µg/disc (Fusarium [1])	diameter of the inhibition zone (DIZ) (Bacillus subtilis [2])	zone of inhibition at 10 µg/disc (Fusarium oxysporum [3])	diameter of the inhibition zone (DIZ) (Escherichia coli [4])	MIC (Fusarium [5])	MIC (Fusarium oxysporum [6])	MIC (Escherichia coli [7])	zone of inhibition at 10 µg/disc (Bacillus subtilis [2])	zone of inhibition at 10 µg/disc (Escherichia coli [4])	MIC (Bacillus subtilis [8])	Activity (Escherichia coli [9])	Activity (Bacillus subtilis [10])
COc1ccc(-n2nnc3cnc(Cl)cc32)cc1	7 mm	inactive	6 mm	inactive	25 µg	50 µg	–	–	–	–	–	–
Clc1cc2c(cn1)nnn2C1CCOCC1	6 mm	inactive	6 mm	inactive	25 µg	50 µg	–	–	–	–	–	–
COc1ccc(-n2nnc3cccnc32)cc1	3 mm	inactive	2 mm	inactive	50 µg	100 µg	–	–	–	–	–	–
Clc1cc2c(cn1)nnn2Cc1ccccc1	7 mm	–	1 mm	–	25 µg	100 µg	25 µg	13 mm	10 mm	25 µg	–	–
Oc1ncnc2c1nnn2Cc1ccccc1	6 mm	inactive	5 mm	inactive	50 µg	100 µg	–	–	–	–	inactive	inactive
Cc1ccc(-n2nnc3cccnc32)c(C)c1	6 mm	inactive	6 mm	inactive	100 µg	75 µg	–	–	–	–	–	–
CN[C@@H]1[C@H](O[C@H]2[C@H](O[C@H]3[C@H](O)[C@@H](O)[C@H](N=C(N)N)[C@@H](O)[C@@H]3N=C(N)N)O[C@@H](C)[C@]2(O)C=O)O[C@@H](CO)[C@H](O)[C@H]1O [STREPTOMYCIN]	–	–	–	–	–	–	25 µg	16 mm	13 mm	25 µg	–	–
c1cnc2c(c1)nnn2C1CCOCC1	5 mm	inactive	3 mm	inactive	50 µg	75 µg	–	–	–	–	–	–
Fc1ccc(-n2nnc3cnc(Cl)cc32)cc1	7 mm	inactive	3 mm	inactive	50 µg	50 µg	–	–	–	–	–	–
Fc1ccc(-n2nnc3cccnc32)cc1	5 mm	–	6 mm	–	50 µg	75 µg	100 µg	12 mm	11 mm	25 µg	–	–
